# Test results reported in patent US20190308933A1, “PHENYLAMIDINES AND THE USE THEREOF AS FUNGICIDES” (priority 2016, published 2019).
# Like-named read-outs stand apart in the source and are kept apart here.
# What was measured:
# Phakopsora pachyrhizi = test: In vivo preventive test on Phakopsora (soybeans); design: species or system Phakopsora pachyrhizi (soybean rust) on soybeans; conditions: 168 h, young soybean plants sprayed, 10 ppm of active ingredient, evaluated 7 days after inoculation, 0% = untreated control, 100% = no disease, read-out: efficacy
# Description: Example: In Vivo Preventive Test on Phakopsora Test (Soybeans)
# To produce a suitable preparation of active compound, 1 part by weight of active compound is mixed with the stated amounts of solvent and emulsifier, and the concentrate is diluted with water to the desired concentration.
# To test for preventive activity, young plants are sprayed with the preparation of active compound at the stated rate of application. After the spray coating has dried on, the plants are inoculated with an aqueous spore suspension of the causal agent of soybean rust (Phakopsora pachyrhizi) and stay for 24 h without light in an incubation cabinet at approximately 24° C. and a relative atmospheric humidity of 95%.
# The plants remain in the incubation cabinet at approximately 24° C. and a relative atmospheric humidity of approximately 80% and a day/night interval of 12 h.
# The test is evaluated 7 days after the inoculation. 0% means an efficacy which corresponds to that of the untreated control, while an efficacy of 100% means that no disease is observed.
# [1] = Log P measurement by HPLC on reversed phase columns (EEC directive 79/831 Annex V.A8); assay type: physicochemical; conditions: LC-UV; for chromatographic logP: reversed phase HPLC column
# Description: [table] Measurement of Log P values was performed according to EEC directive 79/831 Annex V.A8 by HPLC (High Performance Liquid Chromatography) on reversed phase columns with the following methods: If more than one Log P value is available within the same method, all the values are given and separated by “+”. […] Lambda-max-values were determined using UV-spectra from 200 nm to 400 nm and the peak values of the chromatographic signals.
# [2] = acidic range, 0.1% formic acid in water and acetonitrile as eluent (linear gradient 10% to 95% acetonitrile), read-out: LogP [a]
# [3] = neutral range, 0.001 molar ammonium acetate solution in water and acetonitrile as eluent (linear gradient 10% to 95% acetonitrile), read-out: LogP [b]
# [4] = acidic range, 0.1% formic acid in water and acetonitrile as eluent (linear gradient 10% to 95% acetonitrile)
# [5] = neutral range, 0.001 molar ammonium acetate solution in water and acetonitrile as eluent (linear gradient 10% to 95% acetonitrile)
"chromatographic logP [1, 2]","chromatographic logP [1, 3]","LogP [a] [1, 4]","LogP [b] [1, 5]",SMILES,pest or weed control at 10 ppm (Phakopsora pachyrhizi)
1.41,3.86,,,"CCN(C)C=Nc1cc(C)c(Cc2ccccc2C#N)cc1Cl [Example 1, N′-[2-chloro-4-[(2-cyanophenyl)methyl]-5-methylphenyl]-N-ethyl-N-methylmethanimidamide]",80 to 89%
1.52,4.5,,,"CCN(C)C=Nc1cc(C)c(Cc2ccccc2F)cc1Cl [Example 2, N′-[2-chloro-4-[(2-fluorophenyl)methyl]-5-methylphenyl]-N-ethyl-N-methylmethanimidamide]",90 to 100%
1.72,5.16,,,"CCN(C)C=Nc1cc(Cl)c(Cc2ccccc2)cc1C [Example 6, N′-(4-benzyl-5-chloro-2-methylphenyl)-N-ethyl-N-methylmethanimidamide]",90 to 100%
1.92,5.16,,,"CCN(C)C=Nc1cc(C)c(Cc2ccccc2Cl)cc1C [Example 7, N′-[4-[(2-chlorophenyl)methyl]-2,5-dimethylphenyl]-N-ethyl-N-methylmethanimidamide]",
1.79,4.86,,,"CCN(C)C=Nc1cc(C)c(Cc2ccc(F)cc2F)cc1C [Example 9, N′-[4-[(2,4-difluorophenyl)methyl]-2,5-dimethylphenyl]-N-ethyl-N-methylmethanimidamide]",90 to 100%
1.58,4.9,,,"CCN(C)C=Nc1cc(C)c(Cc2ccccc2)cc1C [Example 11, N′-(4-benzyl-2,5-dimethylphenyl)-N-ethyl-N-methylmethanimidamide]",90 to 100%
1.85,,,,"CCN(C)C=Nc1cc(C)c(C2(c3ccccc3)CC2)cc1C [Example 13, N′-[2,5-dimethyl-4-(1-phenylcyclopropyl)phenyl]-N-ethyl-N-methylmethanimidamide]",90 to 100%
1.58,5.32,,,"CCN(C)C=Nc1cc(Cl)c(C(C)c2ccccc2)cc1C (stereo not drawn) [Example 18, N′-[5-chloro-2-methyl-4-(1-phenylethyl)phenyl]-N-ethyl-N-methylmethanimidamide]",90 to 100%
2,4.62,,,"CCN(C)C=Nc1cc(F)c(Cc2ccccc2)cc1C [Example 20, N′-(4-benzyl-5-fluoro-2-methylphenyl)-N-ethyl-N-methylmethanimidamide]",90 to 100%
1.66,5.54,,,"CCN(C)C=Nc1cc(Cl)c(Cc2ccccc2C)cc1C [Example 23, N′-[5-chloro-2-methyl-4-[(2-methylphenyl)methyl]phenyl]-N-ethyl-N-methylmethanimidamide]",90 to 100%
1.53,4.45,,,"CCN(C)C=Nc1cc(C)c(Cc2ccccc2OC)cc1Cl [Example 26, N′-[2-chloro-4-[(2-methoxyphenyl)methyl]-5-methylphenyl]-N-ethyl-N-methylmethanimidamide]",
1.63,4.93,,,"CCN(C)C=Nc1cc(C)c(Cc2ccccc2Cl)cc1Cl [Example 28, N′-[2-chloro-4-[(2-chlorophenyl)methyl]-5-methylphenyl]-N-ethyl-N-methylmethanimidamide]",
1.66,4.93,,,"C=C(c1ccccc1)c1cc(Cl)c(N=CN(C)CC)cc1C [Example 31, N′-[2-chloro-5-methyl-4-(1-phenylethen-1-yl)phenyl]-N-ethyl-N-methylmethanimidamide]",
1.41,4.37,,,"CCN(C)C=Nc1cc(F)c(Cc2ccccc2F)cc1C [Example 33, N-ethyl-N′-[5-fluoro-4-[(2-fluorophenyl)methyl]-2-methylphenyl]-N-methylmethanimidamide]",
1.55,4.63,,,"CCN(C)C=Nc1cc(F)c(C(C)c2ccccc2)cc1C (stereo not drawn) [Example 34, N-ethyl-N′-[5-fluoro-2-methyl-4-(1-phenylethyl)phenyl]-N-methylmethanimidamide]",
1.52,4.54,,,"CCN(C)C=Nc1cc(F)c(Cc2ccc(F)cc2F)cc1C [Example 35, N′-[4-[(2,4-difluorophenyl)methyl]-5-fluoro-2-methylphenyl]-N-ethyl-N-methylmethanimidamide]",

# Second part, the compound before the results:
SMILES,"chromatographic logP [1, 2]","chromatographic logP [1, 3]","LogP [a] [1, 4]","LogP [b] [1, 5]",pest or weed control at 10 ppm (Phakopsora pachyrhizi)
"CCN(C)C=Nc1cc(C)c(Cc2ccccc2)cc1Cl [Example 3, N′-(4-benzyl-2-chloro-5-methylphenyl)-N-ethyl-N-methylmethanimidamide]",1.49,,,,90 to 100%
"CCN(C)C=Nc1cc(Cl)c(Cc2ccccc2C#N)cc1C [Example 4, N′-[5-chloro-4-[(2-cyanophenyl)methyl]-2-methylphenyl]-N-ethyl-N-methylmethanimidamide]",1.38,4.38,,,
CCN(C)C=Nc1cc(Cl)c(Cc2ccccc2F)cc1C [Example 5],,,1.58[a];,2.99[b],
"CCN(C)C=Nc1cc(C)c(Cc2ccccc2C#N)cc1C [Example 8, N′-[4-[(2-cyanophenyl)methyl]-2,5-dimethylphenyl]-N-ethyl-N-methylmethanimidamide]",1.47,4.15,,,90 to 100%
"CCN(C)C=Nc1cc(C)c(Cc2ccccc2F)cc1C [Example 10, N-ethyl-N′-[4-[(2-fluorophenyl)methyl]-2,5-dimethylphenyl]-N-methylmethanimidamide]",1.6,4.87,,,90 to 100%
"Cc1cc(N=CN(C)C(C)C)c(C)cc1Cc1ccc(F)cc1F [Example 12, N′-[4-[(2,4-difluorophenyl)methyl]-2,5-dimethylphenyl]-N-isopropyl-N-methylmethanimidamide]",1.92,5.31,,,90 to 100%
"CCN(C)C=Nc1cc(C)c(C2(c3ccccc3)CC2(F)F)cc1C (stereo not drawn) [Example 14, N′-[4-(2,2-difluoro-1-phenylcyclopropyl)-2,5-dimethylphenyl]-N-ethyl-N-methylmethanimidamide]",1.63,,,,90 to 100%
"CCN(C)C=Nc1cc(C)c(C2(c3ccccc3)CC2(Cl)Cl)cc1C (stereo not drawn) [Example 15, N′-[4-(2,2-dichloro-1-phenylcyclopropyl)-2,5-dimethylphenyl]-N-ethyl-N-methylmethanimidamide]",1.83,,,,
"CCN(C)C=Nc1cc(C)c(C2(c3ccccc3)CC2(Br)Br)cc1C (stereo not drawn) [Example 16, N′-[4-(2,2-dibromo-1-phenylcyclopropyl)-2,5-dimethylphenyl]-N-ethyl-N-methylmethanimidamide]",1.89,,,,
"C=C(c1ccccc1)c1cc(C)c(N=CN(C)CC)cc1Cl [Example 19, N′-[5-chloro-2-methyl-4-(1-phenylethen-1-yl)phenyl]-N-ethyl-N-methylmethanimidamide]",1.58,5.24,,,80 to 89%
"CCN(C)C=Nc1cc(C)c(Cc2ccc(F)cc2F)cc1Cl [Example 21, N′-[2-chloro-4-[(2,4-difluorophenyl)methyl]-5-methylphenyl]-N-ethyl-N-methylmethanimidamide]",1.86,4.6,,,90 to 100%
"CCN(C)C=Nc1cc(Cl)c(Cc2ccc(F)cc2F)cc1C [Example 22, N′-[5-chloro-4-[(2,4-difluorophenyl)methyl]-2-methylphenyl]-N-ethyl-N-methylmethanimidamide]",1.63,,,,90 to 100%
"CCN(C)C=Nc1cc(Cl)c(Cc2ccccc2-c2ccccc2)cc1C [Example 25, N′-[5-chloro-2-methyl-4-[(2-phenylphenyl)methyl]phenyl]-N-ethyl-N-methylmethanimidamide]",2.05,6.02,,,
"CCN(C)C=Nc1cc(C)c(C(C)c2ccccc2)cc1Cl (stereo not drawn) [Example 27, N′-[2-chloro-5-methyl-4-(1-phenylethyl)phenyl]-N-ethyl-N-methylmethanimidamide]",1.61,4.7,,,
CCN(C)C=Nc1cc(Cl)c(Cc2ccccc2OC)cc1C [Example 29],,,1.58^[a];,4.95^[b],
"CCN(C)C=Nc1cc(F)c(Cc2ccccc2OC)cc1C [Example 32, N-ethyl-N′-[5-fluoro-4-[(2-methoxyphenyl)methyl]-2-methylphenyl]-N-methylmethanimidamide]",1.46,4.34,,,
